Results taken from US20240301474A1, “NUCLEASES FOR SIGNAL AMPLIFICATION” (Amazon Technologies, Inc., priority 2021, published 2024).
“Also recorded” adds a separate entry of the source. {FAM} = 6-carboxyfluorescein (IDT 56-FAM); {IABkFQ} = Iowa Black FQ quencher

Experiments:
SyCsx1 [1] = experiment: Limit of detection (LoD) assay, SyCsx1 activated by rA4>P; details: 10 nM SyCsx1, FAM-Q polyC reporter; 0.1, 1, 10 nM tested; FIG. 17
Method: (§4) Varying concentrations of nuclease (SyCsx1, PfuCsx1, or TtCsm6) in reaction buffer (2.1 NEB Buffer-50 mM NaCl, 10 mM Tris-HCl, 10 mM MgCl2, 100 μg/ml BSA) with 1 U/μl murine RNase inhibitor (NEB) and 600 nM FAM-Q reporter (IDT) was mixed with varying concentrations of cA3, cA4, cA6, rA3>P or rA4>P (Biolog or IDT). Negative control was water free of activator. Measurements were taken at 37° C. every 1 min in a Tecan Infinite 200 PRO plate reader (λex, 485 nm; λem, 535 nm).

TtCsm6 [2] = molecular target: T1, TtCsm6 (Thermus thermophilus, UniProt Q53W17, G18R); experiment: Limit of detection (LoD) assay, TtCsm6 activated by rA4>P; details: 100 nM TtCsm6, FAM-Q polyC reporter; 0.01, 0.1, 1, 10 μM tested; FIG. 19
Method: as §4

PfuCsx1 [3] = experiment: Limit of detection (LoD) assay, PfuCsx1 activated by rA4>P; details: 100 nM PfuCsx1, FAM-Q polyA reporter; 0.01, 0.1, 1, 10 μM tested; FIG. 18
Method: as §4

TtCsm6 [4] = molecular target: T1, TtCsm6; experiment: Activation of TtCsm6 by linear and cyclic activators (fluorescence); details: 100 nM TtCsm6, RNAse Alert (IDT) reporter, FIG. 16
Method: (§5) The objective of these experiments was to assess activation of SyCsx1, PfuCsx1, and TtCsm6 by incubating the nucleases with cyclic or linear activators.
as §4

SyCsx1 [5] = experiment: Activation of SyCsx1 by linear and cyclic activators (FAM-Q fluorescence); details: 100 nM SyCsx1, FAM-Q polyC ssRNA reporter; for activation of SyCsx1 (fluorescence time course): 37° C., FIG. 14A/14B; for rapidity of SyCsx1 activation (time until maximum fluorescence): FIG. 14B
Method: as §5, §4

PfuCsx1 [6] = experiment: Activation of PfuCsx1 by linear and cyclic activators (FAM-Q fluorescence); details: 100 nM PfuCsx1, FAM-Q polyA ssRNA reporter, FIG. 15
Method: as §5, §4

TtCsm6 [7] = molecular target: T1, TtCsm6; details: 100 nM TtCsm6, 10 μM cA4, FIG. 22
Method: as §4
(§6) The objective of these experiments was to determine the preferred reporters for SyCsx1, PfuCsx1, and TtCsm6 incubated with cyclic activator cA4.

SyCsx1 [8] = experiment: Reporter preference assay, SyCsx1 activated by cA4; details: 100 nM SyCsx1, 10 μM cA4, FIG. 20
Method: as §4, §6

PfuCsx1 [9] = experiment: Reporter preference assay, PfuCsx1 activated by cA4; details: 100 nM PfuCsx1, 10 μM cA4, FIG. 21
Method: as §4, §6

NucC enzyme = NucC enzyme (Escherichia coli, UniProt D7Y2H5); experiment: NucC activation by cyclic and linear activator with dsM13 plasmid; assay type: biochemical; details: 10 nM NucC, 10 nM activator, 37° C., 4 hours
Method: The objective of this experiment was to achieve activation of the NucC enzyme by incubating this enzyme with its cyclic (c-triAMP) and linear (triAMP)>P activator and the dsM13 plasmid.
The conditions that were tested are outlined in Table 14 below.
A NucC Mix (dsM13) was prepared as outlined in Table 15 below.
The mixture described in Table 15 was divided into two PCT tubes. The mixture was then incubated at 37° C. for 4 hours. Next, the samples were run on a 1.5% agarose gel.

[10] = test system: dsM13 (M13mp18 RF I plasmid); experiment: NucC activity assay with M13 plasmid (double-stranded); assay type: biochemical; details: 10 nM NucC, 10 nM c(triAMP), 37° C., 2:30 hours, 1% agarose gel
Method: (§1) The objective of this experiment was to determine whether the NucC enzyme cleaves both double-stranded DNA and single-stranded DNA by incubating the enzyme with its cyclic activator (c-triAMP) and the dsM13 or ssM13 plasmid.
(§2) The conditions that were tested are outlined in Table 11 below.
A first NucC Mix (dsM13) was prepared as outlined in Table 12 below.
(§3) Each mixture described in Table 12 and Table 13 was divided into two PCT tubes. The mixture was then incubated at 37° C. for 2:30 hours. Next, the samples were run on a 1% agarose gel.

[11] = test system: ssM13 (M13mp18 single-stranded plasmid); experiment: NucC activity assay with M13 plasmid (single-stranded); assay type: biochemical; details: 10 nM NucC, 10 nM c(triAMP), 37° C., 2:30 hours, 1% agarose gel
Method: as §1, §2
A second NucC Mix (ssM13) was prepared as outlined in Table 13 below.
as §3

Sequence of SyCsx1 (as listed by the source): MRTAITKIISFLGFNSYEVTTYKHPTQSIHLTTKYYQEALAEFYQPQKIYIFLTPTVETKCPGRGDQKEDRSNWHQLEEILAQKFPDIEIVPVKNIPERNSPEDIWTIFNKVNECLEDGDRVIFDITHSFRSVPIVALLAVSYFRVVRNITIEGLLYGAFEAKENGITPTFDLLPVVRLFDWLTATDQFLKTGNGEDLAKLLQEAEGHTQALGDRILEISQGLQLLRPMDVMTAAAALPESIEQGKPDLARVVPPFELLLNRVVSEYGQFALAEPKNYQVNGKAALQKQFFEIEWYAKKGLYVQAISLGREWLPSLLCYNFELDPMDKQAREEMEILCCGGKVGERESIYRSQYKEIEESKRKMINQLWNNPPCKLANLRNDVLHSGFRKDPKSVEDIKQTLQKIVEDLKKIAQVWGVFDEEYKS
Sequence of PfuCsx1 (as listed by the source): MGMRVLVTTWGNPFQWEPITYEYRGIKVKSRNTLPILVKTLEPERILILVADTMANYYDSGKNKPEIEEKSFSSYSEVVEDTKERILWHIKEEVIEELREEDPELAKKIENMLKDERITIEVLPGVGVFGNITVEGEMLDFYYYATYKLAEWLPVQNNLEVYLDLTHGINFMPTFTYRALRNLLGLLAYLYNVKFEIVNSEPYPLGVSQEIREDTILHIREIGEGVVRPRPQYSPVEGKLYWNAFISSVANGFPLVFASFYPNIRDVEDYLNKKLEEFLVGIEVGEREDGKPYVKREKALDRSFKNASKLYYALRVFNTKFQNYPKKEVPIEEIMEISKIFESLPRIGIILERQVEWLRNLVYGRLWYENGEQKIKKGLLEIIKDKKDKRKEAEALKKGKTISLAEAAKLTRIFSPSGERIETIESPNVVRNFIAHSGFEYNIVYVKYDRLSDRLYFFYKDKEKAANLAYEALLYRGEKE
T1 sequence (Q53W17 whole entry G18R): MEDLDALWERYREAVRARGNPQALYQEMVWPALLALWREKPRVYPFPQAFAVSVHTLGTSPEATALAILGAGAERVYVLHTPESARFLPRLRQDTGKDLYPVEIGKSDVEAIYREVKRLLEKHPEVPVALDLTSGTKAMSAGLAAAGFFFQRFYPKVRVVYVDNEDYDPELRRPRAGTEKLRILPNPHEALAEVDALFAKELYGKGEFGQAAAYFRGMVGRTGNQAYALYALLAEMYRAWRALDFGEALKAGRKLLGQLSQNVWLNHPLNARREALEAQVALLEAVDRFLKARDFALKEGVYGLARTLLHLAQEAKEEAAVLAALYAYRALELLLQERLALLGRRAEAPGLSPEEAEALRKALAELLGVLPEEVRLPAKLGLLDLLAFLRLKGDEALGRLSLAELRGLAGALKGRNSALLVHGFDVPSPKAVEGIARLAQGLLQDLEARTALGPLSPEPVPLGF

Molecule: linear tetraAMP>P [rA4>P]
- activator concentration that activates SyCsx1 (detection limit) (SyCsx1 [1]): 0.1 nM
- activator concentration that activates TtCsm6 (detection limit) (TtCsm6 [2]): ≥ 1 µM
- activator concentration that activates PfuCsx1 (detection limit) (PfuCsx1 [3]): ≥ 1 µM
- activation of TtCsm6 (fluorescence time course) (TtCsm6 [4]): activated
- activation of SyCsx1 (fluorescence time course) (SyCsx1 [5]): activated
- rapidity of SyCsx1 activation (time until maximum fluorescence) (SyCsx1 [5]): most rapid activations
- activation of PfuCsx1 (fluorescence time course) (PfuCsx1 [6]): activated

Molecule: linear triAMP>P [rA3>P]
- activation of SyCsx1 (fluorescence time course) (SyCsx1 [5]): activated

Molecule: 5′-/56 FAM/rArUrGrUrCrCrCrCrUrGrArA/3IABKFQ/-3′ (AUGUCCCCUGAA; RNA, 5' {FAM}, 3' {IABkFQ}, backbone not given here) [FAM-Q UCU]
- reporter preference upon cleavage by TtCsm6 (TtCsm6 [7]): best reporters
- reporter preference upon cleavage by SyCsx1 (SyCsx1 [8]): best reporters
- reporter preference upon cleavage by PfuCsx1 (PfuCsx1 [9]): best reporters

Molecule: cyclic hexaAMP [cA6]
- activation of SyCsx1 (fluorescence time course) (SyCsx1 [5]): activated

Molecule: cyclic triAMP [c-triAMP]
- degradation of the dsM13 plasmid by NucC in the presence of activator (NucC enzyme; FIG. 13): complete degradation
- activation of the NucC enzyme (NucC enzyme; dsM13 plasmid, 1.5% agarose gel): achieved; also recorded: activated

Molecule: cyclic tetraAMP [cA4]
- activation of TtCsm6 (fluorescence time course) (TtCsm6 [4]): activated
- activation of SyCsx1 (fluorescence time course) (SyCsx1 [5]): activated
- rapidity of SyCsx1 activation (time until maximum fluorescence) (SyCsx1 [5]): most rapid activations
- activation of PfuCsx1 (fluorescence time course) (PfuCsx1 [6]): activated

B1: NucC: nuclease; amino acid sequence SEQ ID NO: 2 (NucC wild sequence) (protein, listed as Escherichia coli)
chain: MSDWSLSQLFASLHEDIQLRLGTARKAFQHPGAKGDASEGVWIEMLDTYLPKRYQAANAFVVDSLGNFSDQIDVVVFDRQYSPFIFKFNEQIIVPAESVYAVFEAKQSASADLVAYAQRKVASVRRLHRTSLPIPHAGGTYPAKPLIPILGGLLTFESDWSPALGMSFDKALNGDLSDGRLDMGCVASHGHFYFNNIDSKFNFEHGNKPATAFLFRLIAQLQFSGTVPMIDIDAYGKWLAN
- cleavage of double-stranded DNA [10]: cleaved
- cleavage of single-stranded nucleic acid [11]: not
